Test results as given in patent US20250186408A1, “TREATMENT OF PHARMACORESISTANT EPILEPSY” (Katholieke Universiteit Leuven, priority 2021, published 2025).

Legend:
Format in all cases: cell-based
[1] = target: T1, AR (Homo sapiens, UniProt P10275); assay: NHR Nuclear Translocation AR Agonist
T1 construct: enzyme fragment for PathHunter enzyme fragment complementation (EFC)
T1 sequence (P10275 1-920): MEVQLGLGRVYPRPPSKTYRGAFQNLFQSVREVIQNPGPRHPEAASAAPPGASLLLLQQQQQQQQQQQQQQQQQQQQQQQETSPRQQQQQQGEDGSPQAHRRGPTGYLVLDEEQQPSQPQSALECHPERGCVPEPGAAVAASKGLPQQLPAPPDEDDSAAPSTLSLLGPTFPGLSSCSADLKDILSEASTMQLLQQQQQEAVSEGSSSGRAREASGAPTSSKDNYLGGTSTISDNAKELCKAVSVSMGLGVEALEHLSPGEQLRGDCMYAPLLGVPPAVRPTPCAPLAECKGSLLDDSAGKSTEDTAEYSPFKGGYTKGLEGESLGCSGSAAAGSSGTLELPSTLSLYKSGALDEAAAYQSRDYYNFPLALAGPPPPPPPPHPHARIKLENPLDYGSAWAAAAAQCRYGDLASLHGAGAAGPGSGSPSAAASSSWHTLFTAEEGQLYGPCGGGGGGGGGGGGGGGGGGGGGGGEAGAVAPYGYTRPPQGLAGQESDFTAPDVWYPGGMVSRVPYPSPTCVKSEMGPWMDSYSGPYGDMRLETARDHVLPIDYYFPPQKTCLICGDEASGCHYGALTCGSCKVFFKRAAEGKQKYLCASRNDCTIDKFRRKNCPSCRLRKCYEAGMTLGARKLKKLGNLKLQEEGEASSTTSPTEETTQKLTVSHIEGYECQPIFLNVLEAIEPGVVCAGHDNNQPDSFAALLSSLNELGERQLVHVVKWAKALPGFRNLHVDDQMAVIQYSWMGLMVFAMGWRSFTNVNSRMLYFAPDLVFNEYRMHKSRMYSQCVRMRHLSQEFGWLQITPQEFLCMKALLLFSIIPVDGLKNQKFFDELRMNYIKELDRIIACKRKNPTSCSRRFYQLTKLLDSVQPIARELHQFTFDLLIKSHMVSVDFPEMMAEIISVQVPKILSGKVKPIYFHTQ
Description: (§1) In vitro pharmacological profiling of compounds was done against 78 functional assays for 47 common off-targets (30) by Eurofins DiscoverX Corporation (Fremont, CA, USA) using their SAFETYscan E/IC50 ELECT service (Cat Ref 87-1003DR, Safety47 Panel Dose Response). The following assays were performed: (1) GPCR cAMP modulation, (2) calcium mobilization, (3) nuclear hormone receptor assays, (4) KINOMEscan binding assays, (5) ion channel assays, (6) transporter assays and (7) enzymatic assays. Compounds were tested in a range of 10 concentrations, following a 3-fold serial dilution, starting from 10 μM. The assays were performed utilizing the PathHunter enzyme fragment complementation (EFC) technology, FLIPR®-based cellular screening assays, and KINOMEscan kinase binding assays.
(§2) Prior to testing, PathHunter NHR cell lines were expanded from freezer stocks and cells were seeded in a total volume of 20 μL into white walled 384-well microplates and incubated at 37° C. […] Microplates were read following signal generation with a PerkinElmer Envision™ instrument for chemiluminescent signal detection. Compound activity was analysed using CBIS data analysis suite (ChemInnovation, CA). For agonist mode assays, percentage activity was calculated using the following equation:

[2] = target: T1, AR; assay: NHR Nuclear Translocation AR Antagonist
Description: as §1, §2

[3] = target: T2, GR (Homo sapiens, UniProt P04150); assay: NHR Protein Interaction GR Agonist
T2 construct: enzyme fragment for PathHunter enzyme fragment complementation (EFC)
T2 sequence (P04150 1-777): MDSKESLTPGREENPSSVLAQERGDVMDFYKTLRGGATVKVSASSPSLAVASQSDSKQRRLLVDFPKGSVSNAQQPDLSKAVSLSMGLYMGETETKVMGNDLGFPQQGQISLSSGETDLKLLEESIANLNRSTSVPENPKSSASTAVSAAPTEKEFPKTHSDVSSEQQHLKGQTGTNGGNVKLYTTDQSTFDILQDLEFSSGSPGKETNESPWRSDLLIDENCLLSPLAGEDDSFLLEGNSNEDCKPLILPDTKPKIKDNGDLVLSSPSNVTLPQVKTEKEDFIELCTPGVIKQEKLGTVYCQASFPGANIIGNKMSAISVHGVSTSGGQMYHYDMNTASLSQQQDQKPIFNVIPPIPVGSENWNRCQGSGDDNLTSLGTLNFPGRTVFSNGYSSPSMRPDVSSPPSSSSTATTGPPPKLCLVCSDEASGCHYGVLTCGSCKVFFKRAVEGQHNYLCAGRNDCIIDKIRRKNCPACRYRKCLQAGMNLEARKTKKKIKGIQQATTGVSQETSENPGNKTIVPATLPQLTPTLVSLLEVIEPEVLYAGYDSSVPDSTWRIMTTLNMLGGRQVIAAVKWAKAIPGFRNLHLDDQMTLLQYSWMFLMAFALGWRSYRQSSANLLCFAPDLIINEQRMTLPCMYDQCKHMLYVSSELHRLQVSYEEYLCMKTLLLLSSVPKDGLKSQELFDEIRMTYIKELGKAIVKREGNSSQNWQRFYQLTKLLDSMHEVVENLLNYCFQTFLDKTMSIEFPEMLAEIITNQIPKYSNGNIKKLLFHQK
Description: as §1, §2

[4] = target: T2, GR; assay: NHR Protein Interaction GR Antagonist
Description: as §1, §2

Work on Clc1cccc(C#Cc2n[nH]c3ncccc23)c1 [Compound 10.1, 3-((3-chlorophenyl)ethynyl)-1H-pyrazolo[3,4-b]pyridine] yielded an EC50 [1] greater than 10 µM, an Emax ([1]; NHR Nuclear Translocation AR Agonist, read-out: Max response) of 0% and an IC50 [2] greater than 10 µM. It also gave an Emax ([2]; NHR Nuclear Translocation AR Antagonist, read-out: Max response) of 4.6%, an Emax ([3]; read-out: Max response) of 0% and an EC50 ([3]; read-out: RC50, result type EC50) greater than 10 µM. It also gave an Emax ([4]; read-out: Max response) of 2.6% and an IC50 ([4]; read-out: RC50, result type IC50) greater than 10 µM.
